The test has as its system E. coli. The test is described as follows: Bacterial susceptibility testing, MIC by broth microdilution (CLSI). Conditions: for MIC: Escherichia coli, read-out: E. coli MIC, broth microdilution, 35° C., 18-24 h; for E. coli MIC: broth microdilution, 35° C., 18-24 h. Background: Dilution methods test growth across graded concentrations, often in twofold steps.

≈ marks a conversion by molar mass, not a printed value. Bounds are passed on as bounds.

Method: Minimal inhibitory concentrations (MIC) were determined by the broth microdilution method in accordance with the Clinical and Laboratory Standards Institute (CLSI) guidelines. In brief, organism suspensions were adjusted to a 0.5 McFarland standard to yield a final inoculum between 3×10^3 and 7×10^5 colony-forming units (CFU)/mL. Drug dilutions and inocula were made in sterile, cation adjusted Mueller-Hinton Broth (Beckton Dickinson). An inoculum volume of 100 μL was added to wells containing 100 μL of broth with 2-fold serial dilutions of drug.

The MIC is the smallest concentration in the dilution series that meets the test's criterion for growth inhibition. For `CN1CC[C@@H](NCc2ccc(C#Cc3ccc(C(CO)Cc4nc[nH]c(=O)c4O)cc3)cc2)C1` (mixture of isomers) [Compound 261], the MIC was in the range of 1 to 8 µg/mL.
For `O=C1N(C(CO)Cc2nc[nH]c(=O)c2O)Cc2cc(-c3ccc(CCN4CCOCC4)cc3)cn21` (stereo not drawn) [Compound 203], the MIC lay in the range of 1 to 8 µg/mL (≈ 2.09 to 16.7 µM).
With `O=c1[nH]cnc(CC(CNC2CC(F)(F)C2)c2ccc(C#Cc3ccc(CN4CCOCC4)cc3)cc2)c1O` (stereo not drawn) [Compound 112], the MIC is under 1 µg/mL.
Still for that read-out and setting: with `O=c1[nH]cnc(CC(CO)c2ccc(C#Cc3cnn(C4CCOCC4)c3)cc2)c1O` (stereo not drawn) [Compound 202] the figure was 1 to 8 µg/mL (≈ 2.38 to 19 µM); with `CNC(=O)C(Cc1nc[nH]c(=O)c1O)c1ccc(C#Cc2ccc(CN3CCOCC3)cc2)cc1` (stereo not drawn) [Compound 23], under 1 µg/mL; with `COC1CN(Cc2ccc(C#Cc3ccc([C@@H](Cc4nc[nH]c(=O)c4O)CN(C)C4CC4)cc3)cc2)C1` (single isomer, unassigned) [Compound 219], under 1 µg/mL.
Take `O=c1[nH]cnc(CC(CO)n2ccc(C#Cc3ccc(CN4CCOCC4)cc3)cc2=O)c1O` (stereo not drawn) [Compound 211]: the MIC lay in the range of 8 to 32 µg/mL (≈ 17.3 to 69.2 µM).
In the case of `O=c1[nH]cnc(CC(CN[C@@H]2CCS(=O)(=O)C2)c2ccc(C#Cc3ccc(CN4CCOCC4)cc3)cc2)c1O` (single isomer, unassigned) [Compound 186], the MIC is under 1 µg/mL.
As for `COC1CN(Cc2ccc(C#Cc3ccc(C(Cc4nc[nH]c(=O)c4O)CN4CC(F)C4)cc3)cc2)C1` (stereo not drawn) [Compound 181], the “E. coli MIC” value is reported as “B (B: >1 μg/mL to ≤8.0 μg/mL)”.
For `CC(C)(O)C(Cc1nc[nH]c(=O)c1O)c1ccc(C#Cc2ccc(CN3CCOCC3)cc2)cc1` (stereo not drawn) [Compound 1], the MIC is 1 to 8 µg/mL (≈ 2.11 to 16.9 µM).
As for `N#CC1CN(C[C@H](Cc2nc[nH]c(=O)c2O)c2ccc(C#Cc3ccc(CN4CC[C@H](C#N)C4)cc3)cc2)C1` (single isomer, unassigned) [Compound 235], the MIC was under 1 µg/mL.
Turning to `COC1CN(Cc2ccc(C#Cc3ccc(C(CN[C@@H](C)CF)Cc4nc[nH]c(=O)c4O)c(F)c3)cc2)C1` (single isomer, unassigned) [Compound 238], the MIC was under 1 µg/mL.
Take `C[C@@H](CF)NCC(Cc1nc[nH]c(=O)c1O)c1ccc(C#Cc2ccc(CNC3CCS(=O)(=O)C3)cc2)cc1` (single isomer, unassigned) [Compound 178]: the MIC was in the range of 1 to 8 µg/mL (≈ 1.81 to 14.5 µM).
With `N#C[C@H]1CCN(Cc2ccc(C#Cc3ccc(C(CO)Cc4nc[nH]c(=O)c4O)cc3)cc2)C1` (stereo partly drawn) [Compound 34], the MIC is under 1 µg/mL.
For `O=C(N[C@@H]1CCN(Cc2ccc(C#Cc3ccc(C(CO)Cc4nc[nH]c(=O)c4O)cc3)cc2)C1)C1CC1` (mixture of isomers) [Compound 256], the MIC is under 1 µg/mL.
Consider `O=c1[nH]cnc(CC(CN[C@H]2C[C@@H](F)C2)c2ccc(C#Cc3ccc(CN4CCOCC4)cc3)cc2)c1O` (stereo partly drawn) [Compound 75], for which the MIC was under 1 µg/mL.
On the same count and under the same terms, in the case of `O=c1[nH]cnc(CC(CO)c2ccc(C#Cc3cnn(CC4CCOCC4)c3)cc2)c1O` (stereo not drawn) [Compound 194] it was 1 to 8 µg/mL (≈ 2.3 to 18.4 µM).
As to `O=C1NC(Cc2nc[nH]c(=O)c2O)c2ccc(C#Cc3ccc(CN4CCOCC4)cc3)cc21` (stereo not drawn) [Compound 210], the MIC was 1 to 8 µg/mL (≈ 2.19 to 17.5 µM).
Regarding `O=C(NCC(F)F)C(Cc1nc[nH]c(=O)c1O)c1ccc(C#Cc2ccc(Cn3ccnc3CO)cc2)cc1` (stereo not drawn) [Compound 29], the MIC was under 1 µg/mL.
With `C[C@@H](CF)NCC(Cc1nc[nH]c(=O)c1O)c1ccc(C#Cc2ccc(CN[C@@H]3CCOC3)cc2)cc1` (mixture of isomers) [Compound 108], the MIC was under 1 µg/mL.
For `O=c1[nH]cnc(CC(CNCCO)c2ccc(C#Cc3ccc(CN4CCOCC4)cc3)cc2)c1O` (stereo not drawn) [Compound 129], the MIC was 1 to 8 µg/mL (≈ 2.05 to 16.4 µM).
With `CC(O)C(Cc1nc[nH]c(=O)c1O)c1ccc(C#Cc2ccc(CN3CCOCC3)cc2)cc1` (stereo not drawn) [Compound 12], the MIC lay in the range of 1 to 8 µg/mL (≈ 2.18 to 17.4 µM).
Same read-out and setting: with `O=c1[nH]cnc(CC(CNCCF)c2ccc(C#Cc3cnn(CC4CCOCC4)c3)cc2)c1O` (stereo not drawn) [Compound 206] the figure was 1 to 8 µg/mL (≈ 2.09 to 16.7 µM).
On the same count and under the same terms, with `COC1CN(Cc2ccc(C#Cc3ccc(C(CNCC(F)CO)Cc4nc[nH]c(=O)c4O)cc3)cc2)C1` (stereo not drawn) [Compound 249] the figure was 1 to 8 µg/mL (≈ 1.92 to 15.4 µM).
On to `NCC(=O)N1CC[C@@H](NCc2ccc(C#Cc3ccc(C(CO)Cc4nc[nH]c(=O)c4O)cc3)cc2)C1` (mixture of isomers) [Compound 262], for which the MIC is 8 to 32 µg/mL.
Turning to `O=C(NCCF)C(Cc1nc[nH]c(=O)c1O)c1ccc(C#Cc2ccc(CN3CCOCC3)cc2)cc1` (stereo not drawn) [Compound 20], the “E. coli MIC” value was “A (A: ≤1 μg/mL)”.
Consider `O=c1[nH]cnc(CC(CO)c2ccc(C#Cc3ccc(CN[C@@H]4CCNC4)cc3)cc2)c1O` (mixture of isomers) [Compound 62], for which the MIC was 1 to 8 µg/mL.
As to `C[C@@H](CF)NCC(Cc1nc[nH]c(=O)c1O)c1ccc(C#Cc2ccc(CN3CC(C4COC4)C3)cc2)cc1` (mixture of isomers) [Compound 126], the MIC was in the range of 1 to 8 µg/mL.
As to `COC1CN(Cc2ccc(C#Cc3ccc(C(CNC4CC4)Cc4nc[nH]c(=O)c4O)c(F)c3)cc2)C1` (stereo not drawn) [Compound 225], the MIC was under 1 µg/mL.
For `NC[C@@H]1CCCN1Cc1ccc(C#Cc2ccc(C(CO)Cc3nc[nH]c(=O)c3O)cc2)cc1` (mixture of isomers) [Compound 145], the MIC is 1 to 8 µg/mL.
Consider `COC1CN(Cc2ccc(C#Cc3ccc(C(Cc4nc[nH]c(=O)c4O)CN4CC(F)C4)cc3)cc2)C1` (stereo not drawn) [Compound 180], for which the “E. coli MIC” value is recorded as “C (C: >8.0 μg/mL to ≤32 μg/mL)”.
Take `Cn1cc(C#Cc2ccc(C(N)Cc3nc[nH]c(=O)c3O)cc2)cn1` (stereo not drawn) [Compound 200]: the MIC is 1 to 8 µg/mL (≈ 2.98 to 23.9 µM).
As to `O=C(CO)N[C@@H]1CCN(Cc2ccc(C#Cc3ccc(C(CO)Cc4nc[nH]c(=O)c4O)cc3)cc2)C1` (mixture of isomers) [Compound 257], the MIC lay within 1 to 8 µg/mL.
Turning to `COC[C@@H](Cc1nc[nH]c(=O)c1O)c1ccc(C#Cc2ccc(CN[C@@H]3CCNC3)cc2)cc1` (single isomer, unassigned) [Compound 288], the MIC was 1 to 8 µg/mL (≈ 2.18 to 17.4 µM).
The same measure, in the same setting: with `N#CC1CN(C[C@@H](Cc2nc[nH]c(=O)c2O)c2ccc(C#Cc3ccc(CN4CC[C@H](C#N)C4)cc3)cc2)C1` (single isomer, unassigned) [Compound 236] the figure was under 1 µg/mL.
Turning to `CC(=O)N1CC[C@H](NCC(Cc2nc[nH]c(=O)c2O)c2ccc(C#Cc3ccc(CN4CCOCC4)cc3)cc2)C1` (single isomer, unassigned) [Compound 183], the “E. coli MIC” value is on record as “A (A: ≤1 μg/mL)”.
As to `O=C(O)CN1CC[C@@H](NCc2ccc(C#Cc3ccc(C(CO)Cc4nc[nH]c(=O)c4O)cc3)cc2)C1` (mixture of isomers) [Compound 156], the MIC is over 32 µg/mL.
`O=C(NCC(F)F)C(Cc1nc[nH]c(=O)c1O)c1ccc(C#Cc2ccc(CN3CCOCC3)cc2)cc1` (stereo not drawn) [Compound 22]: the MIC is under 1 µg/mL.
Turning to `O=c1[nH]cnc(CC(CNCCCF)c2ccc(C#Cc3ccc(CN4CCOCC4)cc3)cc2)c1O` (stereo not drawn) [Compound 105], the MIC is under 1 µg/mL.
For the compound `N#CCCNCC(Cc1nc[nH]c(=O)c1O)c1ccc(C#Cc2ccc(CN3CC(CC#N)C3)cc2)cc1` (stereo not drawn) [Compound 134], the MIC fell in the range of 8 to 32 µg/mL (≈ 15.8 to 63.2 µM).
As to `O=C(NCC(F)F)C(Cc1nc[nH]c(=O)c1O)N1Cc2cc(C#Cc3ccc(CN4CCOCC4)cc3)cn2C1=O` (stereo not drawn) [Compound 191], the MIC was under 1 µg/mL.
Consider `C[C@@H](CF)NCC(Cc1nc[nH]c(=O)c1O)c1ccc(C#Cc2ccc(CN3CC4(CCO4)C3)cc2)cc1` (mixture of isomers) [Compound 132], for which the MIC is under 1 µg/mL.
Same read-out and setting: in the case of `O=c1[nH]cnc(CC(CO)c2ccc(C#Cc3ccc(CN[C@@H]4CCN(CCO)C4)cc3)cc2)c1O` (mixture of isomers) [Compound 155] it was 1 to 8 µg/mL; in that of `O=C1N(C(CO)Cc2nc[nH]c(=O)c2O)Cc2cc(C#Cc3ccc(CN4CCOCC4)cc3)cn21` (stereo not drawn) [Compound 193], 1 to 8 µg/mL (≈ 2.04 to 16.3 µM).
Turning to `CO[C@@H]1CCN(Cc2ccc(C#Cc3ccc(C(CN[C@@H](C)CF)Cc4nc[nH]c(=O)c4O)cc3)cc2)C1` (single isomer, unassigned) [Compound 87], the “E. coli MIC” value is “B (B: >1 μg/mL to ≤8.0 μg/mL)”.
With `C[C@@H](CF)NCC(Cc1nc[nH]c(=O)c1O)c1ccc(C#Cc2ccc(CN3CC4COCC4C3)cc2)cc1F` (single isomer, unassigned) [Compound 239], the MIC was under 1 µg/mL.
As to `O=c1[nH]cnc(C[C@H](CN2CC(O)C2)c2ccc(C#Cc3ccc(CN4CCOCC4)cc3)cc2)c1O` (single isomer, unassigned) [Compound 230], the minimal inhibitory concentration (MIC) was under 1 µg/mL.
For the compound `C[C@H](CO)NCC(Cc1nc[nH]c(=O)c1O)c1ccc(C#Cc2ccc(CN3CCOCC3)cc2)cc1` (single isomer, unassigned) [Compound 170], the MIC was 1 to 8 µg/mL (≈ 1.99 to 15.9 µM).
On the same count and under the same terms, with `CS(=O)(=O)NC[C@@H](Cc1nc[nH]c(=O)c1O)c1ccc(C#Cc2ccc(CN3CCOCC3)cc2)cc1` (single isomer, unassigned) [Compound 304] the figure was under 1 µg/mL.
With `COC1CN(Cc2ccc(C#Cc3ccc(C(Cc4nc[nH]c(=O)c4O)CN4C(=O)OC[C@@H]4C)cc3)cc2)C1` (stereo partly drawn) [Compound 121], the MIC was in the range of 1 to 8 µg/mL (≈ 1.89 to 15.1 µM).
On to `CO[C@@H]1CCN(Cc2ccc(C#Cc3ccc(C(CNCC(C)Cl)Cc4nc[nH]c(=O)c4O)cc3)cc2)C1` (mixture of isomers) [Compound 125], for which the MIC is 1 to 8 µg/mL.
Consider `Cn1cc(C#Cc2ccc(C(CNCCF)Cc3nc[nH]c(=O)c3O)cc2)cn1` (stereo not drawn) [Compound 199], for which the MIC lay within 1 to 8 µg/mL (≈ 2.53 to 20.2 µM).
With `C[C@@H](CO)NCC(Cc1nc[nH]c(=O)c1O)c1ccc(C#Cc2ccc(CN[C@H]3CCOC3)cc2)cc1` (mixture of isomers) [Compound 144], the MIC lay within 1 to 8 µg/mL.
The same measure, in the same setting: with `O=c1[nH]cnc(CC(CN[C@H]2CCS(=O)(=O)C2)c2ccc(C#Cc3ccc(CN4CCOCC4)cc3)cc2)c1O` (single isomer, unassigned) [Compound 188] the figure was under 1 µg/mL.
`COC1CN(Cc2ccc(C#Cc3ccc(C(Cc4nc[nH]c(=O)c4O)CN4CC(OC)C4)cc3)cc2)C1` (stereo not drawn) [Compound 175]: the MIC lay within 1 to 8 µg/mL (≈ 1.94 to 15.5 µM).
Same read-out and setting: with `O=c1[nH]cnc(C[C@H](CO)c2ccc(C#Cc3ccc(C(O)CO)cc3)cc2)c1O` (single isomer, unassigned) [Compound 270] the figure was 1 to 8 µg/mL (≈ 2.46 to 19.7 µM); with `N#C[C@H]1CCN(Cc2ccc(C#Cc3ccc(C(CNCC(F)F)Cc4nc[nH]c(=O)c4O)cc3)cc2)C1` (mixture of isomers) [Compound 123], under 1 µg/mL.
